From ChEMBL document CHEMBL1201862, “PubChem BioAssay data set” (2004)
Calls of active or inactive are those of the source.

Assays:
[1] = target: T1, Aryl hydrocarbon receptor (Homo sapiens, UniProt P35869); test: Luminescence-based cell-based high throughput dose response assay for activators of the Aryl Hydrocarbon Receptor (AHR). [Related pubchem assays: 2796 (Primary screen (AHR activators in singlicate)), 2845 (Confirmation screen (AHR activators in triplicate)), 434939 (Counterscreen (PXR activators in triplicate)), 2804 (Summary (AHR activators))]; type: ADME
T1 sequence (P35869 whole entry): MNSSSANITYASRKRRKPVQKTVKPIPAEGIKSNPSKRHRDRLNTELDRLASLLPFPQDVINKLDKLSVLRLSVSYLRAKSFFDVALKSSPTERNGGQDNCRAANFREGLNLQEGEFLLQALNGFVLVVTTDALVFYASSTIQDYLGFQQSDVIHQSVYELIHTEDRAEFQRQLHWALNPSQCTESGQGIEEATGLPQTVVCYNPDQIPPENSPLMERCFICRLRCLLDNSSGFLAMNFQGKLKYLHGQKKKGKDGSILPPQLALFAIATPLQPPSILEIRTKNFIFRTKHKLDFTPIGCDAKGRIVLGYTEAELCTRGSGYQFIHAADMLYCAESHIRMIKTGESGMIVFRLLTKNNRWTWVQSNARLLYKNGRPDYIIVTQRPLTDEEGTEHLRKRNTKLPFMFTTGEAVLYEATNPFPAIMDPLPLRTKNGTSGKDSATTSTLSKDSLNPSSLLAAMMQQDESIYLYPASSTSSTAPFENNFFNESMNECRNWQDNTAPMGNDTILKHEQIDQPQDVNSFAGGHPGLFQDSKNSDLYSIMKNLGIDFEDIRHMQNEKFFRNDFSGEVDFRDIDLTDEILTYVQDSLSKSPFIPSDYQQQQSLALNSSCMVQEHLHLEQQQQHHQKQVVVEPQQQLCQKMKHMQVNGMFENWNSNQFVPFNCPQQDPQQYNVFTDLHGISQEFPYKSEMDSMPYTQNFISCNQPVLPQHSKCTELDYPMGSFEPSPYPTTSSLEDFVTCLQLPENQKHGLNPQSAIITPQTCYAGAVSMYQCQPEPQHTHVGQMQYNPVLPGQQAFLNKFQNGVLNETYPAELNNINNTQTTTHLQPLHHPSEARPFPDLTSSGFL

Estrogen receptor beta [2] = target: T2, Estrogen receptor beta (Homo sapiens, UniProt Q92731);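 further: recombinant ER-beta bound to coactivator SRC1 peptide in presence of estradiol agonist; inhibitors block coactivator peptide binding and lower the FRET signal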
T2 sequence (Q92731 whole entry, the tested form may be a part): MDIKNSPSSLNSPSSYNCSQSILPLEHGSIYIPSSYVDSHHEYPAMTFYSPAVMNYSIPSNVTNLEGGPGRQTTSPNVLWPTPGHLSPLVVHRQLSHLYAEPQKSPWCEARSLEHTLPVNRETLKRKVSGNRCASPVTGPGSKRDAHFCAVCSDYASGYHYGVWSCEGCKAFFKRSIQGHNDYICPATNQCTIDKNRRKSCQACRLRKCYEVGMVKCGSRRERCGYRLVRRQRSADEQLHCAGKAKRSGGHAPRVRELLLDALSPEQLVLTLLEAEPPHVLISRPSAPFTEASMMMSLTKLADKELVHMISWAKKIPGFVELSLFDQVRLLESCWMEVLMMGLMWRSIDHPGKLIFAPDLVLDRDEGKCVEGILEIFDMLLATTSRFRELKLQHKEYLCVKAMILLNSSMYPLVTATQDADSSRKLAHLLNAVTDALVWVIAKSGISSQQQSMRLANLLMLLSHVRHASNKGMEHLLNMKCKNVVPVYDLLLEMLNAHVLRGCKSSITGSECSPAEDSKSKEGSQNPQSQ

Fatty acid synthase [3] = target: T3, Fatty acid synthase (Homo sapiens, UniProt P49327); test: FAS thioesterase domain inhibitors, dose response, biochemical, endpoint fluorescence intensity, uHTS hits (AID 624327); type: functional;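 further: fluorescence from hydrolysis of an O-methyl fluorescein acyl ester substrate by the enzyme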
T3 sequence (P49327 whole entry, the tested form may be a part): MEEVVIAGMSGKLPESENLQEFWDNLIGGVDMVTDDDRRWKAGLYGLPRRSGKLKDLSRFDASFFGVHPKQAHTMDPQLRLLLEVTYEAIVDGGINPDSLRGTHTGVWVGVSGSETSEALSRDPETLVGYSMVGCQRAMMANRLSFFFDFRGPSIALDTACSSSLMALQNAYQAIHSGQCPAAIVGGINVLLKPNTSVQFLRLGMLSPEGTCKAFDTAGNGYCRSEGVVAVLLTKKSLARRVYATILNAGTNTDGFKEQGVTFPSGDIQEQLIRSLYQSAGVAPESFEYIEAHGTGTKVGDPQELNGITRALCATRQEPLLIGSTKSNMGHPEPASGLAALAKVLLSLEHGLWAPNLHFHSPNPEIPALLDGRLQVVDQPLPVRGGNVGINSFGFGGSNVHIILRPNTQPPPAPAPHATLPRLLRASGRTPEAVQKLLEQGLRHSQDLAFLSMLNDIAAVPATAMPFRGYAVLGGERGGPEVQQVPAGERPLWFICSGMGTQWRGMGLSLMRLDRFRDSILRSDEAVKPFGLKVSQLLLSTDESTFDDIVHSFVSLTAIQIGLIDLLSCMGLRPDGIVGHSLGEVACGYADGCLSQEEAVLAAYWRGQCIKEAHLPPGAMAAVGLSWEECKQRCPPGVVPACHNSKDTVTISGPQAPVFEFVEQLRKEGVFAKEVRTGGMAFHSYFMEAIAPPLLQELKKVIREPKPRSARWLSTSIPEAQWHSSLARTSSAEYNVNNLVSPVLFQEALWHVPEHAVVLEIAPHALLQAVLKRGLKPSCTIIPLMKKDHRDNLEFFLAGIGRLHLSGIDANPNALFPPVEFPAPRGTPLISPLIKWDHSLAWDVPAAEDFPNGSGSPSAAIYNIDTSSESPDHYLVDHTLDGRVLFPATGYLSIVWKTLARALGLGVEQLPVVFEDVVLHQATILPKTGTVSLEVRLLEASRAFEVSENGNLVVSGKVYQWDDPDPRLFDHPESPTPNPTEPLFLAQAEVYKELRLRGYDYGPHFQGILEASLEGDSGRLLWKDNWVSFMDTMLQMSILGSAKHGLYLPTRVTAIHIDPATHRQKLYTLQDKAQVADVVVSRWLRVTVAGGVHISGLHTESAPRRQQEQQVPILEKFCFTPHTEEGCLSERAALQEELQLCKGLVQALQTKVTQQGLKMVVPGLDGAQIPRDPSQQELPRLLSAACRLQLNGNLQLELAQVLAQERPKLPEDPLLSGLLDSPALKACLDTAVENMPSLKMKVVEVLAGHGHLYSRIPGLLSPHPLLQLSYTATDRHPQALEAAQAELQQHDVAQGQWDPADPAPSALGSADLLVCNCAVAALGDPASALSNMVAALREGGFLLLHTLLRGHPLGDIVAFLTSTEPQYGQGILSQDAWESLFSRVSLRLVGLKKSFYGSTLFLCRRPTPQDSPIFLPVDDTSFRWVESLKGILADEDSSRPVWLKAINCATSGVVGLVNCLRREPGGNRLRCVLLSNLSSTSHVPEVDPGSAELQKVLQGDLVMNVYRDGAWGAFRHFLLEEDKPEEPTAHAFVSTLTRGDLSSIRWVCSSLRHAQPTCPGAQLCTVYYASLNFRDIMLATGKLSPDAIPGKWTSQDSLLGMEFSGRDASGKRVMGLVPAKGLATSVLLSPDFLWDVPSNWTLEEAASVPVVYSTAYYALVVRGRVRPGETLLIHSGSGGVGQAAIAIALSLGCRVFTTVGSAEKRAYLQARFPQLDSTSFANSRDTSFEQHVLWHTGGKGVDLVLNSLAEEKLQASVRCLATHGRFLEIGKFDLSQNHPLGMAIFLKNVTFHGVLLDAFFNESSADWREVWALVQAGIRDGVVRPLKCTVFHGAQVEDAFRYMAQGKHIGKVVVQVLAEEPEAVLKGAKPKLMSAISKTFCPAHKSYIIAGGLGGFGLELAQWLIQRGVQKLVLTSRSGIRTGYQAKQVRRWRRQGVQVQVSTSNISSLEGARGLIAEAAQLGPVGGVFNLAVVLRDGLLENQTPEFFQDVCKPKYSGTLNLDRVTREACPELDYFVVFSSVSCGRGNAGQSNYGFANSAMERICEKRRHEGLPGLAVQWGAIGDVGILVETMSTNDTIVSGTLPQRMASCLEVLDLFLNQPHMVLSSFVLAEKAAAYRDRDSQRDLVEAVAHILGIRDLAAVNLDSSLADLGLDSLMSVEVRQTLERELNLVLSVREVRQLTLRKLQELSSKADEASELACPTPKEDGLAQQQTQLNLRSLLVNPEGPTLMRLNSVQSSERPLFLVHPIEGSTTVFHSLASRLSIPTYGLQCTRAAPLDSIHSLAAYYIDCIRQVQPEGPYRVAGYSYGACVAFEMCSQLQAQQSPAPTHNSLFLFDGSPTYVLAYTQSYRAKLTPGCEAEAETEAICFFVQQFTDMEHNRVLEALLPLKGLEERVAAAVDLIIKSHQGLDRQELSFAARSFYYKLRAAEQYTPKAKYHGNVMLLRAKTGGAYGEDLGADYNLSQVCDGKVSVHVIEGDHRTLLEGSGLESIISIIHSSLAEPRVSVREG

Fatty acid synthase [4] = target: T3, Fatty acid synthase; test: FAS thioesterase domain inhibitors, dose response, biochemical, kinetic fluorescence intensity (AID 624326); type: functional;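 further: rate of fluorescence rise from hydrolysis of a fluorogenic O-methyl fluorescein ester substrate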
Vero = test: cytotoxicity of synthesized analogs in Vero cells, SAR follow-up, cytotoxicity control for West Nile virus antiviral project, cell-based, set II (AID 2402); type: functional; details: Chlorocebus sabaeus
Ephrin type-A receptor 4 = Ephrin type-A receptor 4 (Mus musculus, UniProt Q03137); test: inhibitors of EphA4 binding to KYL peptide, primary screen, biochemical, colorimetric, mouse EphA4 (AID 689); type: functional
Ephrin type-A receptor 4, sequence (Q03137 whole entry): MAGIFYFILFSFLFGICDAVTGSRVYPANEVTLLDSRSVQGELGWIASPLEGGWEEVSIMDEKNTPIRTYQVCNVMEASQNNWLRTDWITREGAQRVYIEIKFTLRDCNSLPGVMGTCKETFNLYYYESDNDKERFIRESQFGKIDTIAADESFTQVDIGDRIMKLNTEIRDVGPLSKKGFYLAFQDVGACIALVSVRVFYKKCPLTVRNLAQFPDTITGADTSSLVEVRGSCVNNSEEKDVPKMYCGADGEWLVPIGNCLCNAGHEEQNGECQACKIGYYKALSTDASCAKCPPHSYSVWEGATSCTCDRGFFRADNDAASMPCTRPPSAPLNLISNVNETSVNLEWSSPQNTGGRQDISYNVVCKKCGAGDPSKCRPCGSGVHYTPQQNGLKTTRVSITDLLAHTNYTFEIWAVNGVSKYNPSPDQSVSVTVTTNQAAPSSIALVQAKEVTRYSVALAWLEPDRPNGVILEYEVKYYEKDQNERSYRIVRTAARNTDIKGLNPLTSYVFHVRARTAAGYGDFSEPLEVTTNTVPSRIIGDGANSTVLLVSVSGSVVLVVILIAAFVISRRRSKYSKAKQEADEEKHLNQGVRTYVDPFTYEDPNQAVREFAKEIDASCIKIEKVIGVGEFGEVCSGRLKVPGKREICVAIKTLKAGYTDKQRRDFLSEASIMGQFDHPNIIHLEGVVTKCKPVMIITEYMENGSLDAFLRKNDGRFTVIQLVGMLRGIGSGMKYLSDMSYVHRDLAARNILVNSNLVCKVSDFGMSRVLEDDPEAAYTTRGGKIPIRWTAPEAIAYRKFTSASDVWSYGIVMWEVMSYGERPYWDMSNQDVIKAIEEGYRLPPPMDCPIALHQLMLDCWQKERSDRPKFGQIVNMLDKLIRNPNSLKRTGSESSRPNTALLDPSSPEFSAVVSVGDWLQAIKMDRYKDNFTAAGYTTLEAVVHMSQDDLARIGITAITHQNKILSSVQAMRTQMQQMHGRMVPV

[5] = target: T4, Heat shock factor protein 1 (Mus musculus, UniProt P38532); test: inhibition of MG132-induced HSE-luciferase signal, confirmation, cell-based, NIH3T3, luminescence, dose retest (AID 2382); type: functional;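 further: NIH3T3 fibroblasts with HSF1-driven luciferase reporter stressed by proteasome inhibitor MG132; luminescence from HSF1-driven luciferase expression after 8 hours of MG132 stress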
T4 sequence (P38532 whole entry): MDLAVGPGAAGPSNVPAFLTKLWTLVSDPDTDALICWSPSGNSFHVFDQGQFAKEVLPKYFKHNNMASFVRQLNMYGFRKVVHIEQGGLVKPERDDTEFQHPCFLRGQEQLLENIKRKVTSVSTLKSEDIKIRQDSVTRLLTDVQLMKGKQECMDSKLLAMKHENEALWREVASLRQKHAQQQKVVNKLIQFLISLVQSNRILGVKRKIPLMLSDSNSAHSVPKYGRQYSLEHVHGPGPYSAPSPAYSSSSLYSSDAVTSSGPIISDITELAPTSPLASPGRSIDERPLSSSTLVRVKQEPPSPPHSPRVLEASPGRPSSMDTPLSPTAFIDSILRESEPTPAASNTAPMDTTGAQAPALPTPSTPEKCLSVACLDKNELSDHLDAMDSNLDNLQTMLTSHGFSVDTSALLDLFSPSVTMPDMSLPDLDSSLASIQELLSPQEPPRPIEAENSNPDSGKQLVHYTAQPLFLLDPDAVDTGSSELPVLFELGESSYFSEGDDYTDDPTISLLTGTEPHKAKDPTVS

INS1 = test: beta cell apoptosis inhibitors, cytokine rescue, dose response, luminescence, retest (AID 449756); type: functional, cell-based; details: Rattus norvegicus;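 further: cell death triggered by IL-1 beta plus TNF-alpha plus IFN-gamma mixture; protective hits raise ATP signal compared with cytokine alone wells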
[6] = target: T5, Neuropeptide Y receptor type 2 (Homo sapiens, UniProt P49146); test: NPY-Y2 antagonist potency, selectivity check, dose response, counter-screen for NPY-Y1 antagonist project, cell-based (AID 1278); type: functional
T5 sequence (P49146 whole entry): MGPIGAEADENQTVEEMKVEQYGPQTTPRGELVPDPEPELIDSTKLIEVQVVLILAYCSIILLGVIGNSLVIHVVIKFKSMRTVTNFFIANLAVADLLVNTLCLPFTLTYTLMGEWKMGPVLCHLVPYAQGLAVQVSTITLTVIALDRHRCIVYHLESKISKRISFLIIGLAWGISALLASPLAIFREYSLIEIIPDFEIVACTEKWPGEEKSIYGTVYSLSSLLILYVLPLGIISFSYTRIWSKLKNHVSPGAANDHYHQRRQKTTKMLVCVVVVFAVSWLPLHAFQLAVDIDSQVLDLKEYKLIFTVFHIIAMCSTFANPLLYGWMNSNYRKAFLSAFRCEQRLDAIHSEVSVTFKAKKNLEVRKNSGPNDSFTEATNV

[7] = target: T6, Neuropeptide Y receptor type 1 (Homo sapiens, UniProt P25929); test: NPY-Y1 receptor antagonist potency, dose response, cell-based (AID 1277); type: functional
T6 sequence (P25929 whole entry): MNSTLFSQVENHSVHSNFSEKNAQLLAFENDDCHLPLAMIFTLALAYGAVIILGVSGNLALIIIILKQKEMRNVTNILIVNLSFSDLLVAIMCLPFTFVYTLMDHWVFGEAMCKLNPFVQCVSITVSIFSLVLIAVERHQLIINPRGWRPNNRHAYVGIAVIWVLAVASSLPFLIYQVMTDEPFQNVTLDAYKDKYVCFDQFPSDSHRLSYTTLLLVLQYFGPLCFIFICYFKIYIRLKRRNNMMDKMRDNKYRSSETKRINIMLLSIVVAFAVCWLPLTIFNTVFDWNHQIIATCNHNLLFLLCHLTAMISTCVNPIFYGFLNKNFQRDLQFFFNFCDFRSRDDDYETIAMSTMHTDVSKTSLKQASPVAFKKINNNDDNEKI

Estrogen receptor beta [8] = target: T2, Estrogen receptor beta; test: ERβ–SRC-3 coactivator interaction inhibitors, confirmation, orthogonal assay, biochemical, ELISA, streptavidin-HRP readout (AID 1060)
[9] = target: T7, Sentrin-specific protease 8 (Homo sapiens, UniProt Q96LD8); type: functional
T7 sequence (Q96LD8 whole entry): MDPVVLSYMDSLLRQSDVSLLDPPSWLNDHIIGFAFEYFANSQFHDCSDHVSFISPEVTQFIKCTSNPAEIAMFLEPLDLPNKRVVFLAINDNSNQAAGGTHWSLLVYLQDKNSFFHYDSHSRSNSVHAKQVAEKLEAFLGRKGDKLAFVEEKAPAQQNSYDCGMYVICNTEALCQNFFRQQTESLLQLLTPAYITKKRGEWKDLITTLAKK

[10] = target: T8, Replicative DNA helicase DnaB (Mycobacterium tuberculosis, UniProt P9WMR3); test: DnaB intein splicing inhibitors, dose response, biochemical, cell-free fluorescence (AID 449749); type: functional
T8 sequence (P9WMR3 whole entry): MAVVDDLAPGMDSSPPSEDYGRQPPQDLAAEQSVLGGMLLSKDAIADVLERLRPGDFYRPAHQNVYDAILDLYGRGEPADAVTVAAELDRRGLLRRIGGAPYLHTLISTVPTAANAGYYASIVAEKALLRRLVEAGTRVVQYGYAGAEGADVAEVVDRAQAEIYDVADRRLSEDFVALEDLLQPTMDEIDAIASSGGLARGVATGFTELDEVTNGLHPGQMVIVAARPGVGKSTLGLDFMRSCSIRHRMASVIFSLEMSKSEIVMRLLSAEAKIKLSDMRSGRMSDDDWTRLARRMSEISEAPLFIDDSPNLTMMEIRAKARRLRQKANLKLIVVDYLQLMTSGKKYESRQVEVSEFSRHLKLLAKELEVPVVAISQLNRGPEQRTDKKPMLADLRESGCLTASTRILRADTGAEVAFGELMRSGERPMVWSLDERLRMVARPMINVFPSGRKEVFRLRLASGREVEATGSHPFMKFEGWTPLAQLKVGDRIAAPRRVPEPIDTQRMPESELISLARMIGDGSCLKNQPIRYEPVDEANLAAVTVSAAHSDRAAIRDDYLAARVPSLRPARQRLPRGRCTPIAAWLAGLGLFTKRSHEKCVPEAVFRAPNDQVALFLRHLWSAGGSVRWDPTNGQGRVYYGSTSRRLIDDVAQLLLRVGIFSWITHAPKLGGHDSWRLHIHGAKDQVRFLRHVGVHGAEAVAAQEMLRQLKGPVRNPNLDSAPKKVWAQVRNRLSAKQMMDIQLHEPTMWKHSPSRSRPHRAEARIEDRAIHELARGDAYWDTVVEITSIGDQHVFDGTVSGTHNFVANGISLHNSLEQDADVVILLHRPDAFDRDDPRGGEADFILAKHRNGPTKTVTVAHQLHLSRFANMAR

[11] = target: T7, Sentrin-specific protease 8; type: functional; remark: listed apart in the source
Protein RecA = target: T9, Protein RecA (Mycobacterium tuberculosis, UniProt P9WHJ3); test: Fluorescence Cell-Free Homogeneous Dose Retest to Identify Inhibitors of RecA-Intein Splicing Activity. [Related pubchem assays (depositor defined):AID2097, AID2223, AID489010, AID492950]; type: functional
T9 sequence (P9WHJ3 whole entry): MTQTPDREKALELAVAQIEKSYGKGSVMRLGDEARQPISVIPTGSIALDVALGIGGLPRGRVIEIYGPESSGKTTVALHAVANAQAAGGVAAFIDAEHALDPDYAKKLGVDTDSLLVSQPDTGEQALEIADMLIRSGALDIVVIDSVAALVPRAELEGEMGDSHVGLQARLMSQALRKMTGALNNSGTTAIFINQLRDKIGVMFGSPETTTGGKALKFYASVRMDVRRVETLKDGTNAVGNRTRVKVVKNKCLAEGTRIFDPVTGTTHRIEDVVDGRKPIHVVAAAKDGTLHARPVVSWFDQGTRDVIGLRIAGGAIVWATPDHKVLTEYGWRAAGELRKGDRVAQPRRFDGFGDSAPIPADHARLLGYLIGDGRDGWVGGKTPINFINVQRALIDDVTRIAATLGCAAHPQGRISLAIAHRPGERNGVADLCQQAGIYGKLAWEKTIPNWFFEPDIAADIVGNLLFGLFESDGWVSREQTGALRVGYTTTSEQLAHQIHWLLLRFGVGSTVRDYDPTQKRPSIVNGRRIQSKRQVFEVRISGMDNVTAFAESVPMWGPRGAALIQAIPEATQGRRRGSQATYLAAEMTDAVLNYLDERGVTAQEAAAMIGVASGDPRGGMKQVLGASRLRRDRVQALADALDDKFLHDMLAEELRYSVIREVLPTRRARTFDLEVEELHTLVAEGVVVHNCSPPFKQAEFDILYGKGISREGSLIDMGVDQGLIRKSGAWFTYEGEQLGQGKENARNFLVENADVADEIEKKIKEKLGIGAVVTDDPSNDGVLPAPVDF

SMILES: CCOc1ccc(NC(=O)c2cc3ccccc3cc2OC)cc1
- EC50 [1]: 2.17 µM (active)

SMILES: O=C(CCCn1c(=S)[nH]c2cc3c(cc2c1=O)OCO3)N1CCc2ccccc2C1
- IC50 (Estrogen receptor beta [2]): > 50 µM (not active)

SMILES: COC(=O)c1cc(C(=O)Nc2nnc(C3CC3)s2)cc([N+](=O)[O-])c1
- EC50 [1]: 3.02 µM (active)
- IC50 (Fatty acid synthase [3]): 9.7 µM (active)
- IC50 (Fatty acid synthase [4]): 13.8 µM (active)

SMILES: OC1c2c(F)cccc2N=C2CCCCN21 (stereo unspecified)
- CC50 (Vero): > 200 µM (active)

SMILES: COc1ccc(OC)c(NC(=O)CSc2nc3ccccc3cc2Cc2ccccc2)c1
- IC50 (Ephrin type-A receptor 4): > 100 µM (not active)
- EC50 [5]: > 195 µM (not active)

SMILES: CC(=O)OC1COC(OC2C(O)C(C)OC(OC3C(OC4CCC5(C)C(CCC6(C)C5CC=C5C7CC(C)(C)CCC7(C(=O)O)CCC56C)C4(C)CO)OCC(O)C3O)C2O)C(O)C1OC(C)=O (stereo unspecified)
- AC50 (INS1): 5.67 µM (active)
- IC50 [6]: > 35 µM (not active)
- IC50 [7]: > 35 µM (not active)

SMILES: O=C1/C(=C\c2nc3ccccc3[nH]2)SC(=S)N1c1ccc(F)cc1
- IC50 (Ephrin type-A receptor 4): > 100 µM (not active)

SMILES: Cc1cc(=O)[nH]c(SCC(=O)Nc2nc3c(s2)CCCC3)n1
- IC50 (Estrogen receptor beta [2]): > 50 µM (not active)

SMILES: Cn1nc(C(=O)Nc2sccc2C(N)=O)ccc1=O
- IC50 (Estrogen receptor beta [8]): > 50 µM (not active)

SMILES: O=C(c1ccco1)c1cn(Cc2ccc(Cl)cc2)c2ccccc12
- IC50 [6]: 9.22 µM (active)
- IC50 [7]: 6.69 µM (active)

SMILES: CC1=CC2(O)OCCN(CCO)C2=CC1=O (stereo unspecified)
- IC50 (Estrogen receptor beta [8]): < 0.023 µM (not active)
- IC50 [9]: 22.3 µM (active)
- AC50 [10]: 16.9 µM (active)
- IC50 [11]: > 100 µM (inactive)
- EC50 (Protein RecA): 10.2 µM (active)
